# Measurements from patent US20200030355A1, “COMBINATION THERAPY FOR TREATING CANCER” (Epizyme, Inc., priority 2014, published 2020).
# Experiments:
# Assay type in all cases: cell-based, human
# MOLM-13 cells = test: EPZ-5676 300 nM 7-day pre-treatment, then second compound 72 hours, ATPLite, IC50 shift (Example 6); conditions: 300 nM EPZ-5676 or DMSO 7-day pre-treatment, then 2nd compound 72 hours, Synergy = IC50 of 2nd compound decreased by 2-fold or more vs DMSO control
# Description: Cells were then equilibrated in incubators for 24 hours before treatment with a second compound. Treated assay plates were incubated with a second compound for 72 hours. After this time, plates were developed for endpoint analysis using ATPLite to measure ATP content, which is used as an indicator of cell viability.
# “N/D” means that IC50 of the second compound could not be determined for both conditions.
# MV4-11 (MLL-AF4) = test: Combination proliferation study with Compound A2 (ATP/CellTiter-Glo, Chou-Talalay combination index); conditions: for Combination with Compound A2, MV4-11 / Combination with Compound A2, MV4-11 (MLL-AF4): 7 Day Cotreatment Model; for Combination with Compound A2, MV4-11: Table 5; for Combination with Compound A2, MV4-11 (MLL-AF4): Table 4; for Combination with Compound A2, MV4-111 MLL-AF4: Table 2, Example 3; for Combination of Compound A2 and anti-cancer agent, MV4-11: 7 Day Cotreatment
# Description: (§1) The acute myelogenous leukemia cell lines MV4-11 (MLL-AF4) and MOLM-13 (MLL-AF9) were obtained from American Type Culture Collection (ATCC; Rockville, Md.) and Deutsche Sammlung von Mikroorganismen and Zellkulturen (DSMZ; Braunschweig, Germany) respectively.
# (§2) Studies were performed using MLL-rearranged cell lines in vitro to evaluate the anti-proliferative effect of a combination of two agents together on cell growth. Initial proliferation studies were performed to determine the IC50 of a given compound in each cell line. The cell counts were measured by ATP quantitation using the Promega Cell Titer Glo kit and luminescence values corresponded to the amount of ATP in a given well.
# (§3) Compounds were evaluated for synergy in the co-treatment phase by testing the compounds in a concentration range which was bracketed around their IC50 values. The compounds were plated to a 96 well plate in a matrix format (FIG. 3) which includes increasing concentrations of each drug in the combination in a constant ratio, in addition to the effect of each compound alone in the study. Cells were seeded and grown in the log-linear phase for 3 or 7 days in the co-treatment phase. Minimum inhibition (DMSO alone) controls were used in each plate to calculate fraction affected (Fa) of a test well. DMSO concentration was kept at 0.1% v/v.
# (§4) The drug combination analysis was performed utilizing the Chou-Talalay method Synergy was determined using the software package Calcusyn by Biosoft. The combination index (CI) is a quantitative term used to describe the level of synergy or antagonism in a given test system. A combination index less than one indicates synergy, and a CI greater than one indicates antagonism. Further, strong synergism is achieved when the CI value falls below 0.3.
# (§5) Graphs representing values of combination index (CI) versus Fractional effect (Fa) known as Fa-CI plots were generated and synergy was evaluated. Drug synergy was statistically defined by CI values less than 1, antagonism by CI>1 and additive effect by CI equal to 1.
# as §5
# The HP-D300 digital dispenser (Tecan) was used to dispense compounds in a combinatorial matrix. […] Cell viability was measured via ATP content using CellTiter-Glo® (Promega).
# Viability was determined using CellTiter-Glo® (Promega).
# as §2, with “Proliferation studies” for “Studies”, “MOLM-13, MV4-11 and SKM-1” for “MLL-rearranged”, “cancer cell killing” for “anti-proliferative”, “IC50 values” for “IC50”, “correspond” for “corresponded”
# These studies were performed to evaluate both the combinatorial effect of compounds on cell killing and the durability of the effect by washing out one of the agents.
# Compounds evaluated for synergy in the co-treatment phase were tested in a range which was bracketed around the IC50's. The compounds were plated to a 96 well plate in a matrix format which includes increasing concentrations of each drug in the combination in a constant ratio, in addition to the effect of each compound alone in the study.
# MOLM-13 (MLL-AF9) = test: as above; conditions: for Combination with Compound A2, MOLM13: Table 5; for Combination of Compound A2 and anti-cancer agent, MOLM-13: 7 Day Cotreatment
# Description: as §1, §2, §3, §4, §5
# Graphs representing values of combination index (CI) versus Fractional effect (Fa) known as Fa-CI plots were generated and synergy was evaluated. Drug synergy was statistically defined by CI values less than 1, antagonism by CI>1 and additive effect by CI equal to 1. […]
# Cell viability was measured via ATP content using CellTiter-Glo® (Promega).
# as §2, with “Proliferation studies” for “Studies”, “MOLM-13, MV4-11 and SKM-1” for “MLL-rearranged”, “cancer cell killing” for “anti-proliferative”, “IC50 values” for “IC50”, “correspond” for “corresponded”, “well. […]” for “well.”
# Compounds evaluated for synergy in the co-treatment phase were tested in a range which was bracketed around the IC50's.
# [1] = 7 Day Cotreatment Model, Table 4
SMILES,"Combination with Compound A2, MOLM-13 (MLL-AF9) (MOLM-13 (MLL-AF9); [1])","Combination with Compound A2, MV4-11 (MLL-AF4) (MV4-11 (MLL-AF4))",also measured
Cn1cncc1[C@@](N)(c1ccc(Cl)cc1)c1ccc2c(c1)c(-c1cccc(Cl)c1)cc(=O)n2C [Tipifarnib],–,–,"MOLM-13 (summary of combination study: EPZ-5676 + 2nd compound) (MOLM-13 cells): Synergy (considered synergistic if the IC50 value of the second compound decreased by 2-fold or more when EPZ-5676 was added as compared to the DMSO control); Combination with Compound A2, MV4-11 (MV4-11 (MLL-AF4)): Synergy (Drug synergy was statistically defined by CI values less than 1)"
S=c1nc[nH]c2nc[nH]c12 [Mercaptopurine],Additive --> Synergy,Additive (additive effect by CI equal to 1),–
C=CC(=O)N1CCC[C@@H](n2nc(-c3ccc(Oc4ccccc4)cc3)c3c(N)ncnc32)C1 [Ibrutinib],–,Synergy (Drug synergy was statistically defined by CI values less than 1),–
Cc1sc2c(c1C)C(c1ccc(Cl)cc1)=N[C@@H](CC(=O)OC(C)(C)C)c1nnc(C)n1-2 [JQ1],Additive (additive effect by CI equal to 1),Additive (additive effect by CI equal to 1),"Combination with Compound A2, MOLM-13 (MLL-AF9) (MOLM-13 (MLL-AF9); Table 2, Example 3): Additive (additive effect by CI equal to 1); Combination with Compound A2, MV4-111 MLL-AF4 (MV4-11 (MLL-AF4)): Additive (additive effect by CI equal to 1)"
CN(Cc1cnc2nc(N)nc(N)c2n1)c1ccc(C(=O)N[C@@H](CCC(=O)O)C(=O)O)cc1 [Methotrexate],Additive (additive effect by CI equal to 1),Additive (additive effect by CI equal to 1),–
"CC(C)C[C@H](NC(=O)[C@H](Cc1ccccc1)NC(=O)c1cnccn1)B(O)O [Velcade, bortezomib]",Combination Benefit,–,–
NC(=O)NO [Hydroxyurea],Synergy (Drug synergy was statistically defined by CI values less than 1),Synergy (Drug synergy was statistically defined by CI values less than 1),–
Cc1[nH]c2ccccc2c1CCNCc1ccc(/C=C/C(=O)NO)cc1 [Panobinostat],Synergy (Drug synergy was statistically defined by CI values less than 1),Antagonistic (antagonism by CI>1),–
O=C(CCCCCCC(=O)Nc1ccccc1)NO [Vorinostat],Additive/Synergy,Antagonistic (antagonism by CI>1),–
O=C(Nc1ccncc1)c1cc([N+](=O)[O-])ccc1Cl [Compound T0070907],–,–,"Combination with Compound A2, MOLM13 (MOLM-13 (MLL-AF9); 7 Day Cotreatment Model): Additive (additive effect by CI equal to 1); Combination with EPZ-5676 (MOLM-13 (MLL-AF9); MOLM-13 cells, co-treatment model of Example 3): Synergy (Drug synergy was statistically defined by CI values less than 1)"
Cn1c(=O)n(-c2ccc(C(C)(C)C#N)cc2)c2c3cc(-c4cnc5ccccc5c4)ccc3ncc21 [BEZ235],–,–,"Combination with Compound A2, MOLM13 (MOLM-13 (MLL-AF9); 7 Day Cotreatment Model): Additive (additive effect by CI equal to 1)"
Nc1ncn([C@H]2C[C@H](O)[C@@H](CO)O2)c(=O)n1 [Decitabine],Synergy (Drug synergy was statistically defined by CI values less than 1),Synergy (Drug synergy was statistically defined by CI values less than 1),"Combination with Compound A2, MOLM-13 (MLL-AF9) (MOLM-13 (MLL-AF9); Table 2, Example 3): Synergy (Drug synergy was statistically defined by CI values less than 1); Combination with Compound A2, MV4-111 MLL-AF4 (MV4-11 (MLL-AF4)): Synergy (Drug synergy was statistically defined by CI values less than 1)"
CC[C@]1(O)C[C@H]2CN(CCc3c([nH]c4ccccc34)[C@@](C(=O)OC)(c3cc4c(cc3OC)N(C=O)[C@H]3[C@@](O)(C(=O)OC)[C@H](OC(C)=O)[C@]5(CC)C=CCN6CC[C@]43[C@@H]65)C2)C1 [Vincristine],Additive (additive effect by CI equal to 1),Additive (additive effect by CI equal to 1),–
CO[C@@H]1[C@H](N(C)C(=O)c2ccccc2)C[C@H]2O[C@]1(C)n1c3ccccc3c3c4c(c5c6ccccc6n2c5c31)C(=O)NC4 [Midostaurin],–,Synergy (Drug synergy was statistically defined by CI values less than 1),–
CC(C)(C)c1cc(NC(=O)Nc2ccc(-c3cn4c(n3)sc3cc(OCCN5CCOCC5)ccc34)cc2)no1 [Quizartinib],Synergy (Drug synergy was statistically defined by CI values less than 1),–,"Combination of Compound A2 and anti-cancer agent, MV4-11 (MV4-11 (MLL-AF4)): synergy"
N[C@@H]1C[C@H]1c1ccccc1 (racemic) [Tranylcypromine],Strong Synergy,Synergy (Drug synergy was statistically defined by CI values less than 1),"Combination of Compound A2 and anti-cancer agent, MOLM-13 (MOLM-13 (MLL-AF9)): synergy; Combination of Compound A2 and anti-cancer agent, MV4-11 (MV4-11 (MLL-AF4)): synergy"
CC[C@@H]1C(=O)N(C)c2cnc(Nc3ccc(C(=O)N[C@H]4CC[C@H](N5CCN(CC6CC6)CC5)CC4)cc3OC)nc2N1C(C)C [Volasertib],–,–,"Combination with Compound A2, MV4-11 (MV4-11 (MLL-AF4)): Antagonstic"
Nc1cccc2c1CN(C1CCC(=O)NC1=O)C2=O (centres unmarked) [Lenalidomide],Combination Benefit,–,–
O=C(Nc1ccccc1-c1cn2c(CN3CCNCC3)csc2n1)c1cnc2ccccc2n1 [SRT-1720],–,Synergy (Drug synergy was statistically defined by CI values less than 1),MOLM-13 (summary of combination study: EPZ-5676 + 2nd compound) (MOLM-13 cells): Synergy (considered synergistic if the IC50 value of the second compound decreased by 2-fold or more when EPZ-5676 was added as compared to the DMSO control)
CC1(C)CCC(c2ccc(Cl)cc2)=C(CN2CCN(c3ccc(C(=O)NS(=O)(=O)c4ccc(N[C@H](CCN5CCOCC5)CSc5ccccc5)c(S(=O)(=O)C(F)(F)F)c4)cc3)CC2)C1 [Navitoclax],Synergy (Drug synergy was statistically defined by CI values less than 1),Synergy (Drug synergy was statistically defined by CI values less than 1),"Combination of Compound A2 and anti-cancer agent, MOLM-13 (MOLM-13 (MLL-AF9)): synergy; Combination of Compound A2 and anti-cancer agent, MV4-11 (MV4-11 (MLL-AF4)): synergy"
Nc1nc(F)nc2c1ncn2[C@@H]1O[C@H](CO)[C@@H](O)[C@@H]1O [Fludarabine],Synergy (Drug synergy was statistically defined by CI values less than 1),–,–
O=C1c2c(O)ccc(O)c2C(=O)c2c(NCCNCCO)ccc(NCCNCCO)c21 [Mitoxantrone],Synergy (Drug synergy was statistically defined by CI values less than 1),Synergy (Drug synergy was statistically defined by CI values less than 1),"Combination of Compound A2 and anti-cancer agent, MV4-11 (MV4-11 (MLL-AF4)): Synergy (A combination index less than one indicates synergy)"
C[C@@H]1COCCN1c1cc(C2(S(C)(=O)=O)CC2)nc(-c2cccc3[nH]ccc23)n1 [AZ20],–,–,"Combination with Compound A2, MOLM13 (MOLM-13 (MLL-AF9); 7 Day Cotreatment Model): Synergy (Drug synergy was statistically defined by CI values less than 1)"
CC(=O)c1c(C)c2cnc(Nc3ccc(N4CCNCC4)cn3)nc2n(C2CCCC2)c1=O [Palbociclib],Synergy (Drug synergy was statistically defined by CI values less than 1),Synergy (Drug synergy was statistically defined by CI values less than 1),–
COC1=CC(c2cc3ccccc3[nH]2)=N/C1=C\c1[nH]c(C)cc1C [Obatoclax],Additive (additive effect by CI equal to 1),–,–
